Laboratory results as given in paper PMC3352596 (Bioorganic & medicinal chemistry letters, 2011).

Key:
[1] = stability in pH 7.4 phosphate buffer; type: physicochemical; details: 23 °C, 3 days
[2] = system: Huh7 cells; experiment: cytotoxicity in Huh7 cells by amplification of ribosomal RNA; type: cell-based; details: for cytotoxicity / toxicity to cell lines: Huh7, PBM, CEM, Vero cell lines; for inhibition at 10 µM: Homo sapiens, Huh-7, read-out: Anti-HCV activity: % inhib @ 10 μM in Huh7 cells, rRNA
[3] = biological target: T1, adenosine deaminase (Bos taurus, UniProt P56658); experiment: inhibition of ADA catalyzed conversion of adenosine to inosine; type: biochemical; details: compounds tested at 10 μM
T1 sequence (P56658 1-363): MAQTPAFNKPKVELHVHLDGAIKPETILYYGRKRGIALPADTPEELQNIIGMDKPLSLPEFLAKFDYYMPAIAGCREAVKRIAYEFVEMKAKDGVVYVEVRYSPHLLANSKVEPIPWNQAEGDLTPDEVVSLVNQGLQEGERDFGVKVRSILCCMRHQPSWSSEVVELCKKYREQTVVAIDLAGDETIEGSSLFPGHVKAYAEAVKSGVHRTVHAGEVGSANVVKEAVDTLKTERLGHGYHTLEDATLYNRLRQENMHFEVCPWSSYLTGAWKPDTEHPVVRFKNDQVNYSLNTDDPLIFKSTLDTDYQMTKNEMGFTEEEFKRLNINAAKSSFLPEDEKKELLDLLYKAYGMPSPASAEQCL

[4] = biological target: T1, adenosine deaminase; experiment: evaluation as substrates of adenosine deaminase; type: biochemical
[5] = system: HCV RNA replication (subgenomic HCV replicon); experiment: inhibition of HCV RNA replication in Huh7 cells, subgenomic HCV replicon system; type: cell-based, Hepatitis C virus; details: for inhibition at 10 µM: Hepatitis C virus, Huh-7, read-out: Anti-HCV activity: % inhib @ 10 μM in Huh7 cells, HCV, 10 μM, Huh7 cells, HCV RNA; for antiviral activity or cytotoxicity: anti-HCV, anti-HIV and cytotoxicity assays of Table 1
[6] = system: HCV; details: non-obligatory chain terminators toward RNA elongation; cited from earlier work
[7] = cited from earlier work
[8] = cytotoxicity in CEM cells; type: cell-based; details: human, lymphoblastoid CEM cells

In the case of C[C@@]1(O)[C@H](O)[C@@H](CO)O[C@H]1n1cnc2c(N)nc(NN)nc21 [Compound 19], the “stability in phosphate buffer” value [1] is reported as “complete conversion of 19 to a complex mixture of products after 3 days” and the “cytotoxicity / toxicity to cell lines” value [2] is reported as “no observed cytotoxicity”.
With C[C@@]1(O)[C@H](O)[C@@H](CO)O[C@H]1n1cnc2c1nc(N)n1nc(-c3ccco3)nc21 [Compound 13b] the “ability to inhibit ADA catalyzed conversion of adenosine to inosine” value [3] was “Only compound 21 was found effective” and the inhibition at 10 µM [2] was 0%.
In the case of C[C@@]1(O)[C@H](O)[C@@H](CO)O[C@H]1n1cnc2c(N)n[nH]c(=O)c21 [Compound 32, 4-amino-1-(2-methyl-β-D-ribofuranosyl)-3H-imidazo[4,5-d] pyriazin-7-(6H)-one], the “substrate of adenosine deaminase (nitrogen to oxygen transformation)” value (shortened to “substrate of adenosine deaminase”) [4] is reported as “none underwent a nitrogen to oxygen transformation”, the “ability to inhibit ADA catalyzed conversion of adenosine to inosine” value [3] is reported as “Only compound 21 was found effective” and the inhibition at 10 µM [2] is reported as 0%.
Molecule Cc1nc(N)nc2c1ncn2[C@@H]1O[C@H](CO)[C@@H](O)[C@@]1(C)O [Compound 6] has an inhibition at 10 µM [2] of 0%.
For CCOC(=O)[C@H](C)NP(=O)(OC[C@H]1O[C@@H](n2cnc3c(C)nc(N)nc32)[C@](C)(O)[C@@H]1O)Oc1ccccc1 (stereo partly shown) [Compound 7], the “anti-HCV activity / inhibition of HCV replicon RNA replication” value ([5]; up to 10 μM) was “did not display any inhibition of HCV replicon RNA replication” and the inhibition at 10 µM [2] was 0%.
In the case of COc1nc(Cl)nc2c1ncn2[C@@H]1O[C@H](CO)[C@@H](O)[C@@]1(C)O [Compound 18], the inhibition at 10 µM [5] is reported as 14.3% and the “antiviral activity or cytotoxicity” value [5] is reported as “no antiviral activity or cytotoxicity”.
For C[C@@]1(O)[C@H](O)[C@@H](CO)O[C@H]1n1cnc2c(N)ncnc21 [Compound 1, 2′-C-Methyl adenosine], the “in vitro anti-HCV activity” value [6] is listed as “selective in vitro anti-HCV activity” and the “in vivo bioavailability” value [7] is listed as “poor bioavailability”.
For C[C@@]1(O)[C@H](O)[C@@H](CO)O[C@H]1n1cnc2c(=N)n(N)[nH]c(=O)c21 [Compound 33], the inhibition at 10 µM [2] was 0%.
With CCOP(=O)(OCC)c1nc(N)nc2c1ncn2[C@@H]1O[C@H](CO)[C@@H](O)[C@@]1(C)O [Compound 9] the inhibition at 10 µM [5] was 18.7%, the “substrate of adenosine deaminase” value [4] was “none underwent a nitrogen to oxygen transformation” and the “ability to inhibit ADA catalyzed conversion of adenosine to inosine” value [3] was “Only compound 21 was found effective”. For the same molecule, the inhibition at 10 µM [2] was 14.8%.
For C[C@@]1(OC(=O)c2ccccc2)[C@H](OC(=O)c2ccccc2)[C@@H](COC(=O)c2ccccc2)O[C@H]1n1cnc2c(Cl)nc(NO)nc21 [Compound 27], the inhibition at 10 µM [2] was 99.9% and the “cytotoxicity / toxicity to cell lines” value [2] was “broad toxicity against most cell lines tested”.
In the case of CCOP(=O)(O)c1nc(N)nc2c1ncn2[C@@H]1O[C@H](CO)[C@@H](O)[C@@]1(C)O [Compound 10], the inhibition at 10 µM [5] is reported as 19.3%, the “substrate of adenosine deaminase” value [4] is reported as “none underwent a nitrogen to oxygen transformation” and the “ability to inhibit ADA catalyzed conversion of adenosine to inosine” value [3] is reported as “Only compound 21 was found effective”.
With C[C@@]1(O)[C@H](O)[C@@H](CO)O[C@H]1n1cnc2c(N)nc(N=[N+]=[N-])nc21 [Compound 20] the “antiviral activity or cytotoxicity” value [5] was “no antiviral activity or cytotoxicity” and the inhibition at 10 µM [2] was 0%.
In the case of C[C@@]1(OC(=O)c2ccccc2)[C@H](OC(=O)c2ccccc2)[C@@H](COC(=O)c2ccccc2)O[C@H]1n1cnc2c(N)nc(NO)nc21 [Compound 26], the “cytotoxicity / toxicity to cell lines” value [2] is reported as “broad toxicity against most cell lines tested” and the CC50 [8] is reported as 27.4 µM.
Cc1nc2c3ncn([C@@H]4O[C@H](CO)[C@@H](O)[C@@]4(C)O)c3nc(N)n2n1 [Compound 13a] gave an inhibition at 10 µM [2] of 0%.
For C[C@@]1(O)[C@H](O)[C@@H](CO)O[C@H]1n1cnc2c(=O)[nH]c(N)nc21 [Compound 2, 2′-C-methyl guanosine], the “in vitro anti-HCV activity” value [6] is listed as “selective in vitro anti-HCV activity” and the “in vivo bioavailability” value [7] is listed as “poor bioavailability”.
In the case of C[C@@]1(O)[C@H](O)[C@@H](CO)O[C@H]1n1cnc2c(N)nc(-n3cc([Si](C)(C)C)nn3)nc21 [Compound 22], the “antiviral activity or cytotoxicity” value [5] is reported as “no antiviral activity or cytotoxicity” and the inhibition at 10 µM [2] is reported as 0%.
In the case of C[C@@]1(O)[C@H](O)[C@@H](CO)O[C@H]1n1cnc2c(N)nc(-n3ccnn3)nc21 [Compound 21], the “antiviral activity or cytotoxicity” value [5] is reported as “no antiviral activity or cytotoxicity”, the “substrate of adenosine deaminase” value [4] is reported as “none underwent a nitrogen to oxygen transformation” and the “ability to inhibit ADA catalyzed conversion of adenosine to inosine” value [3] is reported as “effective”. For the same molecule, the inhibition at 10 µM [2] was 0%.
For C[C@@]1(O)[C@H](O)[C@@H](CO)O[C@H]1n1cnc2c(N)nc(Cl)nc21 [Compound 17], the “antiviral activity or cytotoxicity” value [5] was “no antiviral activity or cytotoxicity”.
For C[C@@]1(O)[C@H](O)[C@@H](CO)O[C@H]1n1cnc2c(=O)[nH]nc(N)c21 [Compound 35, 7-amino-1-(2-methyl-δ -D-ribofuranosyl)-1H-imidazo [4,5-d] pyridazin-4-(5H)-one], the “ability to inhibit ADA catalyzed conversion of adenosine to inosine” value [3] was “Only compound 21 was found effective” and the inhibition at 10 µM [2] was 0%.
